Results from US8993593B2, “N-(4-(6-fluoro-3,4-dihydroisoquinolin-2(1H)-yl)-2,6-dimethylphenyl)-3,3-dimethylbutanamide as potassium channel modulators” (Valeant Pharmaceuticals International, priority 2006, dated 2015).
pEC50: −log10 of the molar value.

Key:
KCNQ4 = KCNQ4 (Homo sapiens, UniProt P56696); experiment: Two-electrode voltage-clamp in Xenopus laevis oocytes, KCNQ4; type: cell-based
Experimental: (§1) Female Xenopus laevis extracted ovaries were purchased from eNASCO (LM00935MX, eNASCO Fort Atkinson, Wis.). […] Approximately 50 nl cRNA (about 50 ng) was injected for KCNQ1, KCNQ4, and KCNQ5 using a Nanoject microinjector (Drummond, Broomall, Pa., USA). For co-expression of KCNQ2 and KCNQ3 and of KCNQ1 and KCNE1, cRNA's were mixed in equal molar ratios before injection of approximately 50 nl. […] Oocytes were kept in Culture Barth solution at 19° C. which was changed daily and currents were recorded after 3 to 5 days.
(§2) KCNQ channel currents expressed in Xenopus laevis oocytes were recorded using a two-electrode voltage-clamp. […] The oocytes were placed in custom built perfusion chambers connected to a continuous flow system and impaled with a current electrode and a voltage-clamp electrode pulled from borosilicate glass on a Flaming/Brown Micropipette Puller (Sutter Instruments Co, Novato, Calif., USA).
(§3) All compounds were dissolved in DMSO to obtain concentrated stock solutions. On the day of electrophysiological experiments the stock solutions were thawed and diluted in recording solution to their final concentrations. The final DMSO concentration never exceeded 0.1%. Compound delivery was performed using a custom built multi-barrel apparatus connected to the flow system.
(§4) Data were acquired by means of an Axograph X software (Axograph Scientific, Sydney, AU) and analyzed using Graph Pad Prism (GraphPad Software Inc., CA, USA). […]
(§5) After steady channel current was recorded in the presence of Retigabine at its EC75, recorded oocyte was washed with the recording solution until its steady current returned to its normal level without the presence of any drugs. Then the channel steady current was recorded in the presence of the test compound at its EC75. The percent efficacy was then expressed as: % efficacy=(C2/C 1)×100 where C2 is the recorded steady current in the presence of follow-on compound at its EC75 and C1 is the recorded steady current in the presence of Retigabine at its EC75.

hERG = hERG (Homo sapiens, UniProt Q12809); experiment: cell-based
Chain of hERG (Q12809 whole entry): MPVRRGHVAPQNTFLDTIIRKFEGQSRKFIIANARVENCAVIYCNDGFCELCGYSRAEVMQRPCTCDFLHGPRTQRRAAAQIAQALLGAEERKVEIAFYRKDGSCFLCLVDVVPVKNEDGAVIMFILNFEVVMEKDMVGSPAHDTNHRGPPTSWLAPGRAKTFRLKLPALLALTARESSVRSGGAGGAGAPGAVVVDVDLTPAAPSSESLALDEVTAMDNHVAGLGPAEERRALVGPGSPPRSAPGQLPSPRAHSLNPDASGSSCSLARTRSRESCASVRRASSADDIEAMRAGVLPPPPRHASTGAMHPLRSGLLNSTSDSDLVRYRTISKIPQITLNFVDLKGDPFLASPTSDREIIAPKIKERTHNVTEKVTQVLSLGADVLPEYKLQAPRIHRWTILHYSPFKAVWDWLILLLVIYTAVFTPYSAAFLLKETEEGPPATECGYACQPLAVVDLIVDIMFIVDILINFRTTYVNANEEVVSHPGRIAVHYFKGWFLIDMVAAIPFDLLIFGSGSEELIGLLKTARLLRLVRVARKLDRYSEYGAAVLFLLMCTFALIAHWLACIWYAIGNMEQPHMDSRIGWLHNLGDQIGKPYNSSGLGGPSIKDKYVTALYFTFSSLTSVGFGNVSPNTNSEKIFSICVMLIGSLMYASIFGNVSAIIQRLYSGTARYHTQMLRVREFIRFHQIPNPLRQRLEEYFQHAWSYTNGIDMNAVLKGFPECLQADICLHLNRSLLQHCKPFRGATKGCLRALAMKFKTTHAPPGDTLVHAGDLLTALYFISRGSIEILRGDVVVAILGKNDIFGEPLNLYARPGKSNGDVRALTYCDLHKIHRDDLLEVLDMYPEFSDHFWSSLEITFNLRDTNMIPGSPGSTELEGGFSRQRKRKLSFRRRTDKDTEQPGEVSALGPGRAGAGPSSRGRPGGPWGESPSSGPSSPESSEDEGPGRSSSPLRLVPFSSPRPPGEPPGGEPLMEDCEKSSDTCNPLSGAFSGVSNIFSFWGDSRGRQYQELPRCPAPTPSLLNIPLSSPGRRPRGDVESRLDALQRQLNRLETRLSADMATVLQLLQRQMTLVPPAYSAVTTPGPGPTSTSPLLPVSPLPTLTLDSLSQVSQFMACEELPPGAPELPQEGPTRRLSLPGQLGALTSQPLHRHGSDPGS

KCNQ5 = KCNQ5 (Homo sapiens, UniProt Q9NR82); experiment: Two-electrode voltage-clamp in Xenopus laevis oocytes, KCNQ5; type: cell-based
Experimental: as §1, §2, §3, §4, §5

[1] = Rotarod test (motor impairment, acute toxicity); conditions: CF-1, in vivo, oral; behavioral rotarod model, mouse
Experimental: Prior to MES testing, compound dosed mice are scrutinized for abnormal neurologic status as defined by motor impairment on a slowly turning (6 rpm) rotarod apparatus (Model 755, Series 8, IITC Life Sciences, Woodland Hills, Calif.). […] These measurements are done at the same time points as the MES assay. Untreated normal mice are able to maintain balance on the rotarod for at least one minute without falling. Median toxicity of a compound (TD50, the dose of a drug that results in motor impairment in 50% of animals) is determined.

KCNQ1/NE1 = KCNQ1/NE1 (Homo sapiens, UniProt P51787); experiment: Two-electrode voltage-clamp in Xenopus laevis oocytes, KCNQ1/KCNE1; type: cell-based; design: dose or concentration left out as unconfirmed; conditions: oocyte expression
Chain of KCNQ1/NE1 (P51787 whole entry): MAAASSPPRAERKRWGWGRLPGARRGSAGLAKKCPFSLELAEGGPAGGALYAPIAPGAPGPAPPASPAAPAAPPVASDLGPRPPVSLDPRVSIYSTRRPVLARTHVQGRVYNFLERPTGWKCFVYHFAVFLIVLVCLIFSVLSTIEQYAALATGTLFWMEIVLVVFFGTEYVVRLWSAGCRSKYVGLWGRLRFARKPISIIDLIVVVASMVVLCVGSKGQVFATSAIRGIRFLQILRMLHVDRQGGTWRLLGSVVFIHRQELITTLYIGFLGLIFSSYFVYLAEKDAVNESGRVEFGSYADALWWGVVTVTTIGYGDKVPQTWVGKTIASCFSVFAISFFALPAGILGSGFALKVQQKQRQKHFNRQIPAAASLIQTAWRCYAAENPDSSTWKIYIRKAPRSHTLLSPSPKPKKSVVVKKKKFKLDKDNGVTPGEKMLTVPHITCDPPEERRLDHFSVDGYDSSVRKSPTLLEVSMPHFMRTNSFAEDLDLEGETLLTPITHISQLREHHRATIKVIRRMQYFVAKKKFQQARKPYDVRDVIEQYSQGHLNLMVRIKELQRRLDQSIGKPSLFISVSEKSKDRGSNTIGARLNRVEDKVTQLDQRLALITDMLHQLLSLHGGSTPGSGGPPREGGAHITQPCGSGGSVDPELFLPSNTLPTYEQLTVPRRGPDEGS
Experimental: as §1
KCNQ channel currents expressed in Xenopus laevis oocytes were recorded using a two-electrode voltage-clamp. […]
as §4, §5

With `Cc1cc(N2CCc3cc(F)ccc3C2)cc(C)c1NC(=O)CC(C)(C)C` [compound A, N-[4-(6-fluoro-3,4-dihydro-1H-isoquinolin-2-yl)-2,6-dimethylphenyl]-3,3-dimethyl butanamide] the pEC50 (KCNQ4) was 6.20, the “KCNQ4 Efficacy Relative to Retigabine (%)” value (KCNQ4; oocyte expression, at EC75) was 100% and the pEC50 (hERG) was less than 4.52. The pEC50 (KCNQ5) was 6.46, the “KCNQ5 Efficacy Relative to Retigabine (%)” value (KCNQ5; oocyte expression, at EC75) was 100% and the TD50 at 2 h [1] was 12.6 mg/kg. For the same compound, the “KCNQ1/NE1 Block (%)” value (KCNQ1/NE1) was 3.5%.
